`CC(CNc1ccc(C(=O)O)cc1)Oc1cccc2ccccc12` (stereo not drawn) showed a melting point of 142 to 144 °C. Molecule `CCc1c(C(=O)c2cc(C)cc(C)c2)n(COCc2ccccc2)c(=O)[nH]c1=O` has a melting point of 115 to 116 °C. Molecule `C=CCONC(=O)c1nc(-c2ccc(Cl)c(OC)c2F)nc(N)c1OC` has a melting point of 148 to 150 °C. Work on `CCN1CCCC1CNC(=O)c1c(O)c(OC)c2occc2c1OC` (stereo not drawn) yielded a melting point of 86 °C. `C#CCN(C)C(=O)N1CC(Oc2cccc(C(F)(F)F)c2)C1` showed a melting point of 71 to 73 °C. `NS(=O)(=O)c1c(-c2ccccc2)sc2ccccc12` showed a melting point of 185 to 186 °C. `COc1ccc(N2CCN(Cc3n[nH]c4c(Cl)cccc34)CC2)cc1` showed a melting point of 190 to 191 °C. `CCCc1cn(CCO)nc1OCc1ccc2ccccc2n1` showed a melting point of 61 to 62 °C. Molecule `Cc1cc(SC(C)C)c(NC(=O)CCCCCCCSc2nc3ccccc3s2)c(SC(C)C)n1` has a melting point of 107 to 108 °C. With `O=C(O)Cc1c(-c2ccccc2)nn(-c2ccccc2Cl)c1-c1ccccc1` the melting point was 191 to 193 °C. For `O=C(NC1CCC(CNc2nc3c(s2)CCOc2ccccc2-3)CC1)OCc1ccccc1` (stereo not drawn), the melting point was 124 to 127 °C. For `O=C1NCc2cc(C(=O)CCCl)ccc2N1`, the melting point was greater than 270 °C. `O=C1c2ccccc2OCN1CCO[N+](=O)[O-]` gave a melting point of 49 to 51 °C. `CC(C)c1cccc(C(C)C)c1NC(=O)Nc1nc(-c2ccccc2)ns1` gave a melting point of 180 to 183 °C. With `CCOC(=O)c1cc(-c2ccc(C#N)cc2)[nH]c1N` the melting point was 228 to 229 °C. For `CCOC(=O)C1(C(=O)OCC)C(CC)CC(O)N1C(C)=O` (stereo not drawn), the melting point was 106 to 109 °C. For `C(C#Cc1cccc2ccccc12)#Cc1cccc2ccccc12`, the melting point was 176 to 177 °C. For `COc1cc([N+](=O)[O-])c2c3c(c4ccccc4nc13)C=CN2`, the melting point was 220 to 223 °C. `C=CC(=O)NC1=NN(c2c(Cl)cc(Cl)cc2Cl)C(=O)C1c1cc[nH]n1` (stereo not drawn) gave a melting point of 151 to 154 °C. In the case of `Cc1cc2c(c(C)c1NC=O)CC(C)(CI)O2` (stereo not drawn), the melting point is reported as 135 to 138 °C. Work on `FC(F)c1cn(-c2c(Cl)cc(C(F)(F)F)cc2Cl)nc1C(F)(F)F` yielded a melting point of 88 to 90 °C. For `CS(=O)(=O)N1CCC(NC(=O)NC23CC4CC(CC(C4)C2)C3)CC1`, the melting point was 228 to 229 °C. `O=C(O)CC(Cc1c[nH]c2ccccc12)C(=O)O` (stereo not drawn) showed a melting point of 144 to 145 °C. In the case of `COc1nc(OC)nc(OC(=O)c2cccc3cc(O)ccc23)n1`, the melting point is reported as 166 to 168 °C. `CC(c1oc2ccccc2c(=O)c1-c1cccc(F)c1)n1nc(-c2ccc(F)c(O)c2)c2c(N)ncnc21` (stereo not drawn) gave a melting point of 241 to 244 °C. `CN1CCCCC1COC(=O)Nc1cccc(Br)c1` (stereo not drawn) showed a melting point of 67.3 to 68.1 °C. In the case of `O=C(CCCO)NCCO`, the melting point is reported as 54 to 56 °C. Molecule `O=C(O)CN1C(=O)C(=Cc2ccc(OCc3ccccc3)c(OCc3ccccn3)c2)SC1=S` has a melting point of 204 to 207 °C. `Nc1c(NC(=O)CCl)ccc2c1C(=O)c1ccccc1C2=O` showed a melting point of 193 to 194 °C. For `CCC(=O)c1cc2c(c(Cl)c1O)OC(C(=O)O)C2` (stereo not drawn), the melting point was 227 to 229 °C. In the case of `O=C1CCC(N2C(=O)c3cccc(NC(=O)c4cccc(F)c4)c3C2=O)C(=O)N1` (stereo not drawn), the melting point is reported as 260 to 262 °C. In the case of `CCCCCCCCOc1ccc(O)c2ccccc12`, the melting point is reported as 73 to 74 °C. In the case of `CCOC(=O)N(N)c1ccc(C)cc1`, the melting point is reported as 35 °C. For `CCOCc1nc2c(N)nc3c(c2n1CC1(OCCS(C)(=O)=O)CCC1)CCCC3`, the melting point was 186 to 188 °C. In the case of `O=Cc1ccc(OC[C@H]2CO2)cc1`, the melting point is reported as 32 °C. Work on `O=C(O)CC1Sc2ccc([N+](=O)[O-])cc2CN(CCc2ccccc2)C1=O` (stereo not drawn) yielded a melting point of 210 to 214 °C. `C[C@H](NC(=O)[C@@H](CC(=O)O)NC(=O)c1ccccc1)C(=O)N1CCC[C@H]1C(=O)O` gave a melting point of 161 to 163 °C. `Cc1ccc(O)c(I)c1` showed a melting point of 34.5 to 35.5 °C. For `O=C(Nc1ccccc1)c1ccccn1`, the melting point was 75 to 77 °C. In the case of `O=c1oc(-c2ccc(OCCO)cc2)cc(O)c1SCCc1ccccc1`, the melting point is reported as 123 to 125 °C. For `CC(=O)Nc1c(C)cccc1CCC(=O)O`, the melting point was 110 °C. For `Cc1cn(-c2ccc([N+](=O)[O-])c(C)c2)c(C)n1`, the melting point was 136 to 138 °C. `Fc1ccc(-c2cnn(CCC#Cc3ccccn3)n2)cc1` showed a melting point of 83.5 to 84.5 °C. With `CCC(C)COC(=O)Cn1cccc1-c1nc(-c2ccc(OC)cc2)c(-c2ccc(OC)cc2)s1` (stereo not drawn) the melting point was 81.5 to 84.5 °C. Work on `O=C(O)COc1ccc2c(-c3ccccc3F)noc2c1I` yielded a melting point of 178 to 180 °C. With `NC(=NO)c1nn(-c2c(Cl)cc(C(F)(F)F)cc2Cl)c(N)c1S(=O)(=O)C(F)(F)F` the melting point was 205 to 206 °C. In the case of `CC(=O)OCCC1=CCC2C3CCC4=CCC=CC4(C)C3C(O)CC12C` (stereo not drawn), the melting point is reported as 203 to 205 °C. With `COC(=O)CC(O)CP(=O)(C#Cc1c(-c2ccc(F)cc2)c2n(c1C(C)C)CCCC2)OC` (stereo not drawn) the melting point was 145 to 146 °C. For `CN1C(=O)CCCc2cc(Nc3ncc(Cl)c(Nc4ccccc4C(=O)NCCO)n3)ccc21`, the melting point was 190 to 194 °C. Work on `CCOC(=O)C1CN(C(=O)c2cc(OC)c(OC)c(OC)c2)CCN1C(=O)C1=Cc2cc(OC)c(OC)cc2CCC1` (stereo not drawn) yielded a melting point of 108 to 110 °C. Molecule `CN(C)c1ccncc1CCCOc1ccc(OCCCC(=O)O)cc1` has a melting point of 106 to 108 °C. `COC(=O)c1nc(OC)n2c1CN=C(c1ccccc1Cl)c1cc(Cl)ccc1-2` gave a melting point of 155 to 160 °C. In the case of `CNC(=O)[C@@H]1CCC[C@@H]1Nc1nc(Nc2ccc3c(c2)CCN(CCOC)CC3)ncc1Cl` (relative stereo), the melting point is reported as 176 °C. `CCOC(=O)c1cccc(-c2ccc3c(n2)C(Oc2ccc(Cl)cc2Cl)CC3)c1` (stereo not drawn) gave a melting point of 129 to 130 °C. In the case of `CC1(C)OC(c2ccc(S(C)(=O)=O)cc2Cl)=C(c2ccccc2)C1=O`, the melting point is reported as 89 to 90 °C. In the case of `Nc1ccc(-c2cnns2)cc1`, the melting point is reported as 126 to 128 °C. Molecule `Cn1nnnc1-c1cnc2ccccc2c1O` has a melting point of 318 to 320 °C. `CN1CCC(=C2c3ccccc3-c3cocc3-c3ccccc32)CC1` gave a melting point of 147 to 148 °C. With `CCOC(=O)C1=C(N)NC2=C(C(=O)CCC2)C1c1ccccc1C#N` (stereo not drawn) the melting point was 165 °C. Work on `O=C1CCC(C(=O)O)C1` (stereo not drawn) yielded a melting point of 59 to 60.5 °C. Work on `O=C(CC1CCCC(Cl)C1)Nc1ccccc1` (stereo not drawn) yielded a melting point of 110 to 112 °C. With `CCOc1ccc(-c2nc(CCC(=O)c3ccccc3OC)cs2)cc1OCC` the melting point was 68.9 to 69.3 °C. `CCCN1CCC[C@@H]2c3cccc(O)c3OC[C@H]21` (relative stereo) gave a melting point of 111 to 114 °C. Molecule `CN(C)Cc1cccc(Oc2ccc3c(c2)S(=O)(=O)NC2CCCN32)c1` (stereo not drawn) has a melting point of 122 °C. Work on `O=C(c1ccc(F)cc1)c1ccc(C(=O)c2ccc(F)cc2)cc1` yielded a melting point of 218 to 220 °C. `CCOC(=O)Oc1ccc(C(=O)Oc2ccc(C#N)cc2)cc1` gave a melting point of 145 °C. In the case of `CC(C)(C)c1cc(C(=O)CCl)ccc1Cl`, the melting point is reported as 159 °C. `CCn1nc(NC(=O)NS(=O)(=O)c2ccccc2C(=O)OC)nc1SC` showed a melting point of 188 to 191 °C. `CON(c1ccc(SC)cc1[N+](=O)[O-])S(=O)(=O)c1ccc(C)cc1` showed a melting point of 110 to 111 °C. Molecule `CCC(C)NC(=O)c1ncc(C)cc1C(=O)OC` (stereo not drawn) has a melting point of 58 to 60 °C. In the case of `CC1CC(=O)C1(Cl)CC(Cl)(Cl)Cl` (stereo not drawn), the melting point is reported as 80 to 81 °C. `CCn1c(=O)n(CCN2CC[C@H](NC(=O)c3cc(Cl)c(N)c4c3OCC4)[C@H](OC)C2)c2ccccc21` (relative stereo) showed a melting point of 174 °C. With `COc1ccc(C2Sc3c(ccc4ccccc34)N(CCN(C)C)C(=O)C2OC(=O)c2ccc(O)c(O)c2)cc1` (stereo not drawn) the melting point was 146 to 148 °C.

Reference: a melting point compilation (Tetko et al.; mined from patent text by program, amines drawn as free bases though some values may be those of a salt)
